Like-named read-outs stand apart in the source and are kept apart here.
Target: T1, porcine pancreatic lipase (triacylglycerol acyl hydrolase; EC 3.1.1.3) (Sus scrofa, UniProt P00591)
T1 sequence (P00591 1-450): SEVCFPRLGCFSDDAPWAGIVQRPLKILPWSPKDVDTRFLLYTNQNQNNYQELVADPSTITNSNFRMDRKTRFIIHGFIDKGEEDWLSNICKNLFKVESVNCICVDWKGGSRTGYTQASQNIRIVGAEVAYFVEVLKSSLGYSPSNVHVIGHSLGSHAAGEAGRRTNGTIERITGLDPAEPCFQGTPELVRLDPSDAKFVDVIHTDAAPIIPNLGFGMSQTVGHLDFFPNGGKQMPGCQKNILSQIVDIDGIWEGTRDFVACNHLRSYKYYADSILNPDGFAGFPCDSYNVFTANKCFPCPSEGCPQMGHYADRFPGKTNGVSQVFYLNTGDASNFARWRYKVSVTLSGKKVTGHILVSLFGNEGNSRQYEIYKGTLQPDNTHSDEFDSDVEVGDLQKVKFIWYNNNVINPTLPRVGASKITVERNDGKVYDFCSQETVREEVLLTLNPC
Assay: In vitro pancreatic lipase inhibition, 4-nitrophenyl butyrate substrate
Type: biochemical
Settings: means ± SD (n = 3), PBS pH 7.2, 37 °C, OD 405 nm
Experimental: The inhibition of PL was evaluated using a previously reported method.
The inhibition studies of porcine pancreatic lipase (triacylglycerol acyl hydrolase; EC 3.1.1.3) were performed employing 4-nitrophenyl butyrate as a substrate. The compounds were dissolved in MeOH at concentrations from 0.22 mM to 2.7 mM. […] Then, the substrate solution was added (10 μL of 3.2 mM in H2O:DMF, 70:30), and the plate was incubated and shaken for 30 min at 37 °C. The optical density values (OD) were acquired at 405 nm with a Synergy H1 microplate reader (BioTek, Bad Friedrichshall, Germany). The experiments were performed in triplicate, and the %inhibition was determined by the following equation:(1) %inhibition=ODcontrol−ODsample/ODcontrol× 100% where ODcontrol refers to the enzyme–substrate mixture, while ODsample corresponds to the enzyme–substrate mixture in the presence of the inhibitor.
OriginPro 2023 software (OriginLab Corp., Northampton, MA, USA) was adopted for statistical analysis. The regression coefficients were determined based on the analysis of variance (one-way ANOVA, significance level 0.01). A p-value < 0.01 was set as the threshold for significance for Tukey’s test.

Row | SMILES | IC50 (read-out: IC50) | IC50
1 | C/C(=C\COc1c2ccoc2cc2oc(=O)ccc12)CCC(O)C(C)(C)O (centres unmarked) [Dihydroxybergamottin] | 84.5 ± 1.5 µM | 
2 | COc1cc([C@H]2c3cc(O)c(OC)cc3C[C@@H](CO)[C@@H]2CO)ccc1O [Isolariciresinol] | 12.3 ± 1.2 µM | low micromolar range
3 | Oc1ccc(/C=C/c2cc(O)cc3c2[C@@H](c2cc(O)cc(O)c2)[C@H](c2ccc(O)cc2)O3)cc1 [ε-Viniferin, Ɛ-Viniferin] | 13.2 ± 0.6 µM | low micromolar range

— publication PMC12472586, “Leveraging Natural Compounds for Pancreatic Lipase Inhibition via Virtual Screening” (Pharmaceuticals, 2025)
